Experimental data taken from the supplement of paper PMC6723410.

Columns and labels:
GUMC-403 [1] = assay: viability at highest tested concentration (max response) relative to DMSO (% of DMSO control); higher = less cytotoxic; settings: library / dose series: MIPE library, 11-point 1:3 dilution; top concentration 46.1 µM; 48 h
How it was run: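 Conditionally reprogrammed GUMC-403 papilloma cells from a patient were plated at 700/well in 5 μL F + Y medium in 1536-well plates and left overnight at 37 °C. A pin tool then added 23 nL of library compounds as an 11-point 1:3 series, for 48 h. CellTiter-Glo luminescence was read on a ViewLux and scaled with vehicle wells set to 100% and empty wells to 0%. Each value gives viability at the highest tested concentration relative to vehicle control.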

GUMC-403 [2] = assay: AC50 for reduction of cell viability; higher = less potent; settings: library / dose series: MIPE library, 11-point 1:3 dilution; 48 h

SMILES	viability (GUMC-403 [1])	AC50 for reduction of cell viability (GUMC-403 [2]) [nM]
CC/1=C(\O)C(=O)\C=C2/C1=C/C=C3\[C@@]2(C)CC[C@@]4(C)[C@@H]5C[C@@](C)(CC[C@]5(C)CC[C@]34C)C(O)=O	6.06	8330
Cc1cc(Nc2cc(NC(=O)c3c(Cl)cccc3Cl)ccn2)nc(N)n1	13	20900
COc1cc2nc(-c3ccc(N4CCN(C)CC4)cc3)nc(NCCN3CCOCC3)c2cc1OC	48.5	1050
COc1ccc(-c2ccc3c(N4CCOC[C@@H]4C)nc(N4CCOC[C@@H]4C)nc3n2)cc1CO	57.2	37.2
CC1(C)Cc2c(sc(NC(=S)NC(=O)c3ccccc3)c2C(=O)O)CO1	25.5	26400
CCOc1cc2ncc(C#N)c(Nc3ccc(F)c(Cl)c3)c2cc1NC(=O)/C=C/CN(C)C	76.1	29.6
C[S+](=O)([O-])N1CCN(Cc2cc3nc(-c4cccc5[nH]ncc45)nc(N4CCOCC4)c3s2)CC1	55.1	235
CC(C)CC(=O)Nc1n[nH]c2c1CN(C(=O)C1CCN(C)CC1)C2(C)C	15.9	1480
CSCC[C@H](NC(=O)[C@H](Cc1c[nH]c2ccccc12)NC(=O)CCNC(=O)OC(C)(C)C)C(=O)N[C@@H](CC(=O)O)C(=O)N[C@@H](Cc1ccccc1)C(N)=O	30.1	5900
Cc1ccc([N+](=O)[O-])cc1[S+](=O)([O-])N(C)/N=C/c1cnc2ccc(Br)cn12	8.42	23.5
CN(C)CCN(C)C(=O)c1ccc(NC(=O)Nc2ccc(-c3nc(N4CCOCC4)c4ccn(CC(F)(F)F)c4n3)cc2)cc1	5.64	118
NCC(=O)Nc1ccc(-n2nc(C(F)(F)F)cc2-c2ccc3c(ccc4ccccc43)c2)cc1	1.75	26400
COC[C@H](NC(=O)c1cnc(C)s1)C(=O)N[C@@H](COC)C(=O)N[C@@H](Cc1ccccc1)C(=O)[C@@]1(C)CO1	8.89	6620
CCC[C@@H](C=O)NC(=O)[C@H](CC(C)C)NC(=O)[C@H](CC(C)C)NC(=O)OCc1ccccc1	7.94	14800
Cn1cc(CNCC2CCN(c3ncc(C(=O)NO)cn3)CC2)c2ccccc21	33.5	2960
N=C(NCCCCCCNC(=N)NC(=N)Nc1ccc(Cl)cc1)NC(=N)Nc1ccc(Cl)cc1	5.73	26400
C[C@@]12C(=O)OC(=O)[C@@]1(C)C1CCC2O1	21.1	5900
NC(=O)[C@@H](CCC(F)(F)F)N(Cc1ccc(-c2ncon2)cc1F)[S+](=O)([O-])c1ccc(Cl)cc1	76.2	132
CN[C@@H]1C[C@H]2O[C@@](C)([C@@H]1OC)n1c3ccccc3c3c4c(c5c6ccccc6n2c5c31)C(=O)N[C@H]4O	8.86	1480
C/C=C(/C)C(=O)O[C@H]1C(C)=C2[C@H]([C@@H]1OC(=O)CCCCCCC)[C@@](C)(OC(C)=O)C[C@H](OC(=O)CCC)[C@@]1(O)[C@H]2OC(=O)[C@@]1(C)O	57.2	526
CNC(=O)c1ccccc1Nc1nc(Nc2ccc(N3CCOCC3)cc2OC)ncc1Cl	9.51	1480
COc1ccc([C@@H]2CNC(=O)C2)cc1OC1CCCC1	51	2960
Nc1nc(F)nc2c1ncn2[C@@H]1O[C@H](CO)[C@@H](O)[C@H]1O	47.8	3720
CN1CCN(c2cc(C(=O)Nc3ccc4c(c3)-c3c(c(C(N)=O)nn3-c3ccc(F)cc3)CC4)c(Cl)cn2)CC1	7.1	5260
ClC1=CC\2=C(NC(=O)\C(=C2N[C@@H]3CN4CCC3CC4)C5=NC6=C([NH]5)C=CC=C6)C=C1	16.4	3320
C=CC(=O)Nc1cccc(Oc2nc(Nc3ccc(N4CCN(C)CC4)cc3OC)ncc2Cl)c1	65.2	590
CC(C)N[C@@H]1CCn2c(=O)[nH]c3cccc(c32)[C@H]1O	30.4	9350
COc1cc(Nc2c(C#N)cnc3cc(OCCCN4CCN(C)CC4)c(OC)cc23)c(Cl)cc1Cl	74.7	2350
O=C1c2c(O)ccc(O)c2C(=O)c2c(NCCNCCO)ccc(NCCNCCO)c21	12.4	7430
